Laboratory results as given in ChEMBL document CHEMBL5537149, “Design, synthesis, and lead optimization of piperazinyl-pyrimidine analogues as potent small molecules targeting the viral capping machinery of Chikungunya virus” (Eur J Med Chem, 2024).
pEC50: −log10 of the molar value. ≈ marks a conversion by molar mass, not a printed value.

Assays:
[1] = Cytotoxicity against African green monkey Vero cells assessed as reduction in overall metabolic activity incubated for 5 days by MTS reagent based absorbance method; format: toxicity, cell-based; conditions: chlorocebus sabaeus, time 5 day
[2] = Selectivity index, ratio of CC50 for cytotoxicity against African green monkey Vero cells to EC50 for antiviral activity against Chikungunya virus infected in African green monkey Vero cells assessed as reduction in viral induced cell death; format: toxicity, cell-based; conditions: read-out: Ratio CC50/EC50
[3] = system: Chikungunya virus; assay: Antiviral activity against Chikungunya virus infected in African green monkey Vero cells assessed as reduction in viral induced cell death incubated for 5 days by MTS reagent based absorbance method; format: functional, organism-based; conditions: 120 h
[4] = Aqueous solubility of compound at pH 7.4 by HPLC analysis; format: physicochemical
[5] = Metabolic stability in human liver microsomes assessed as half-life preincubated for 5 mins followed by NADPH addition and measured upto 60 mins by HPLC-MS/MS analysis; format: ADME, Microsome; conditions: time < 65 min

SMILES	CC50 at 120 h [1]	selectivity ratio [2]	pEC50 [3]	solubility [4]	half-life [5]
CCNc1cc(C)nc(N2CC3CN(C(=O)c4ccc(Cl)cc4)CC3C2)n1 (stereo not given)	> 88 µM	> 7.5	4.92		
CCNc1nc(C)cc(N2CCC3(CC2)CC(=O)c2ccccc2O3)n1			5.38	98 µM (≈ 34.5 µg/mL)	> 60 min
CCNc1nc(C)cc(N2CCC(NC(=O)c3cc(Cl)cc(Cl)c3)CC2)n1	> 100 µM		< 4.60	100 µM (≈ 40.8 µg/mL)	
Cc1cc(N2CCN(C(=O)c3ccc(Br)cc3)CC2)nc(N(C)C)n1	> 100 µM	> 15	5.18	> 120 µM	> 60 min
CCNc1nc(N2CCN(C(=O)c3cc(Cl)cc(Cl)c3)CC2)cc(C(F)(F)F)n1	> 50 µM		< 4.90	2 µM (≈ 0.897 µg/mL)	29 min
CCNc1nc(C)cc(N2CCN(C(=O)c3cccc(C(F)(F)F)c3)CC2)n1	80 µM	60	5.89	> 120 µM	> 60 min
CCNc1cc(C)nc(N2CC3CCC(C2)N3C(=O)c2cc(Cl)cc(Cl)c2)n1			< 4.00	97 µM (≈ 40.8 µg/mL)	
Cc1cc(N2CCN(C(=O)c3cc(Cl)cc(Cl)c3)CC2)nc(N(C)C)n1	67 µM	15	5.36	109 µM (≈ 43 µg/mL)	> 60 min
CCNc1nc(C)cc(NC2CCN(C(=O)c3cc(Cl)cc(Cl)c3)CC2)n1	47 µM	3.4	4.85	101 µM (≈ 41.2 µg/mL)	> 60 min
CCNc1nc(C)cc(N2CC3CCC(C2)N3C(=O)c2cc(Cl)cc(Cl)c2)n1			4.85	111 µM (≈ 46.7 µg/mL)	> 60 min
Cc1cc(N2CCN(C(=O)c3ccc(Cl)cc3)CC2)nc(NC(C)C)n1	46 µM	2.6	4.74	115 µM (≈ 43 µg/mL)	> 60 min
CCNc1nc(C)cc(N2CCN(C(=O)c3ccc(C)cc3)CC2)n1	203 µM	84	5.62	> 120 µM	> 60 min
CCNc1cc(N2CCN(S(=O)(=O)c3ccc(Cl)cc3)CC2)ncn1	44 µM	2.7	4.80	95 µM (≈ 36.3 µg/mL)	> 60 min
CCNc1cc(C)nc(N2CCN(S(=O)(=O)c3ccc(Cl)nc3)CC2)n1	97 µM	0.8	3.92	115 µM (≈ 45.6 µg/mL)	
O=C(c1ccc(Cl)cc1)N1CCN(c2nc(C(F)(F)F)nc3[nH]cnc23)CC1			4.59	36 µM (≈ 14.8 µg/mL)	
CCNc1nc(C)cc(N2CCN(C(=O)c3ccc(F)cc3F)CC2)n1	> 100 µM	> 1	< 4.00		
CCNc1cc(C(F)(F)F)nc(N2CCN(C(=O)c3cc(Cl)cc(Cl)c3)CC2)n1	> 25 µM		< 5.20	3.5 µM (≈ 1.57 µg/mL)	18 min
O=C(c1ccc(Cl)cc1)N1CCN(c2ncnc3[nH]cnc23)CC1			4.03	114 µM (≈ 39.1 µg/mL)	
CCNc1nc(C)cc(NC2CN(C(=O)c3cc(Cl)cc(Cl)c3)C2)n1			5.07	104 µM (≈ 39.5 µg/mL)	37 min
Cc1nc(Cl)c(N)c(N2CCN(C(=O)c3ccc(Cl)cc3)CC2)n1	> 88 µM	> 1	< 4.06		
CCNc1cc(C)nc(N2CCC3(CC2)CC(=O)c2ccccc2O3)n1			4.64	100 µM (≈ 35.2 µg/mL)	

SMILES	CC50 at 120 h [1]	selectivity ratio [2]	pEC50 [3]	solubility [4]	half-life [5]
CCNc1cc(C)nc(N2CCC3(CCN(C(=O)c4cc(Cl)cc(Cl)c4)C3)C2)n1 (stereo not given)			4.55	108 µM (≈ 46.9 µg/mL)	
CCNc1cc(C)nc(NC2CN(C(=O)c3cc(Cl)cc(Cl)c3)C2)n1			< 4.00	93 µM (≈ 35.4 µg/mL)	
CCNc1cc(C)nc(N2CCN(C(=O)c3cc(Cl)cc(Cl)c3)CC2)n1	> 100 µM	> 1.5	4.17	11 µM (≈ 4.34 µg/mL)	
Cc1cc(N(C)C)nc(N2CCN(C(=O)c3cc(Cl)cc(Cl)c3)CC2)n1	> 100 µM		< 4.00	95 µM (≈ 37.5 µg/mL)	
Cc1cc(N2CCN(C(=O)c3cccc(Br)c3)CC2)nc(N(C)C)n1	> 100 µM	> 1	4.00		
CCNc1nc(C)cc(N2CC3CN(C(=O)c4cc(Cl)cc(Cl)c4)CC3C2)n1 (stereo not given)			4.72	109 µM (≈ 45.8 µg/mL)	> 60 min
CCNc1cc(C)nc(N2CCN(S(=O)(=O)c3cccs3)CC2)n1	180 µM	1.8	3.99	68 µM (≈ 25 µg/mL)	
CCNc1cc(C(F)(F)F)nc(N2CCN(C(=O)c3cccc(Br)c3)CC2)n1			4.39	0.8 µM (≈ 0.367 µg/mL)	17 min
Cc1cc(N2CCN(S(=O)(=O)c3ccc(F)cc3)CC2)nc(N2CCCC2)n1	47 µM	1.9	4.60	> 120 µM	
CCNc1nc(C)cc(N2CC3CN(C(=O)c4ccc(Cl)cc4)CC3C2)n1 (stereo not given)	72 µM	23	5.49		
Cc1nc(Cl)c(N)c(N2CCN(C(=O)c3cc(Cl)cc(Cl)c3)CC2)n1			4.49	94 µM (≈ 37.7 µg/mL)	
CCNc1cc(N2CCN(S(=O)(=O)c3ccc(F)cc3)CC2)ncn1			< 3.56	94 µM (≈ 34.4 µg/mL)	
O=C(c1cc(Cl)cc(Cl)c1)N1CCN(c2ncnc3[nH]cnc23)CC1			4.49	112 µM (≈ 42.3 µg/mL)	
Nc1nc(N2CCN(C(=O)c3ccc(Cl)c(Cl)c3)CC2)c2nc[nH]c2n1			< 4.00	106 µM (≈ 41.6 µg/mL)	
CC(C)Nc1ccnc(N2CCN(S(=O)(=O)c3ccc(F)cc3)CC2)n1			5.00	100 µM (≈ 37.9 µg/mL)	46 min
CCNc1cc(C)nc(N2CCCC(NC(=O)c3cc(Cl)cc(Cl)c3)C2)n1 (stereo not given)	49 µM	< 1.95	< 4.60	31 µM (≈ 12.7 µg/mL)	
CCNc1nc(C)cc(N2CCC3(CCN(C(=O)c4cc(Cl)cc(Cl)c4)C3)C2)n1 (stereo not given)			4.96	98 µM (≈ 42.6 µg/mL)	> 60 min
CCNc1nc(C)cc(N2CCN(C(=O)c3ccc(C)cc3C)CC2)n1	> 100 µM	> 1	< 4.00		
CCNc1cc(C(F)(F)F)nc(N2CCN(C(=O)c3ccc(Cl)c(Cl)c3)CC2)n1	> 25 µM		< 5.20		36 min
CCNc1nc(C)cc(N2CCN(C(=O)c3ccc(Cl)cc3Cl)CC2)n1	47 µM	< 0.47	< 4.00	> 120 µM	
CCNc1cc(C)nc(N2CC(NC(=O)c3cc(Cl)cc(Cl)c3)C2)n1			< 4.06	47 µM (≈ 17.9 µg/mL)	

SMILES	CC50 at 120 h [1]	selectivity ratio [2]	pEC50 [3]	solubility [4]	half-life [5]
Cc1nc(Cl)c(N)c(N2CCN(C(=O)c3ccc(Cl)c(Cl)c3)CC2)n1			5.01	118 µM (≈ 47.3 µg/mL)	> 60 min
CCNc1cc(C)nc(N2CCC3(CCN(C(=O)c4ccc(Cl)cc4)C3)C2)n1 (stereo not given)	74 µM	2.3	4.49		
CCNc1cc(C)nc(N2CCN(C(=O)C3CCCCC3)CC2)n1	147 µM	2.1	4.15	119 µM (≈ 39.4 µg/mL)	
Nc1nc(N2CCN(C(=O)c3cc(Cl)cc(Cl)c3)CC2)c2nc[nH]c2n1			< 4.00	47 µM (≈ 18.4 µg/mL)	
O=C(c1ccc(Cl)c(Cl)c1)N1CCN(c2ncnc3[nH]cnc23)CC1			4.18	104 µM (≈ 39.2 µg/mL)	
CCNc1nccc(N2CCN(C(=O)c3ccc(F)cc3)CC2)n1	> 304 µM	> 1.4	3.67	> 120 µM	
CCNc1cc(C(F)(F)F)nc(N2CCN(C(=O)c3ccc(Br)cc3)CC2)n1	> 25 µM		< 5.20	1.2 µM (≈ 0.55 µg/mL)	56 min
CCNc1nc(C)cc(N2CC(NC(=O)c3cc(Cl)cc(Cl)c3)C2)n1			< 4.00	81 µM (≈ 30.8 µg/mL)	
CCNc1cc(C)nc(N2CC3CCC(C2)N3C(=O)c2ccc(Cl)cc2)n1	> 88 µM	> 1.11	4.10		
CCNc1nc(N2CCN(C(=O)c3ccc(Cl)c(Cl)c3)CC2)cc(C(F)(F)F)n1	> 100 µM		< 4.00		
Nc1nc(N2CCN(C(=O)c3ccc(Cl)cc3)CC2)c2nc[nH]c2n1			< 4.00	116 µM (≈ 41.5 µg/mL)	
CCNc1nc(N2CCN(C(=O)c3ccc(Br)cc3)CC2)cc(C(F)(F)F)n1	> 100 µM		< 4.00	33 µM (≈ 15.1 µg/mL)	
CCNc1cc(C)nc(N2CCC(NC(=O)c3cc(Cl)cc(Cl)c3)CC2)n1	48 µM	< 0.48	< 4.00	52 µM (≈ 21.2 µg/mL)	
O=C(c1ccc(Cl)c(Cl)c1)N1CCN(c2nc(C(F)(F)F)nc3[nH]cnc23)CC1			5.02	71 µM (≈ 31.6 µg/mL)	> 60 min
CCNc1cc(C)nc(N2CC3CN(C(=O)c4cc(Cl)cc(Cl)c4)CC3C2)n1 (stereo not given)			4.64	108 µM (≈ 45.4 µg/mL)	
O=C(c1cc(Cl)cc(Cl)c1)N1CCN(c2nc(Cl)nc3[nH]cnc23)CC1			4.74	66 µM (≈ 27.2 µg/mL)	> 60 min
O=C(c1cc(Cl)cc(Cl)c1)N1CCN(c2nc(C(F)(F)F)nc3[nH]cnc23)CC1			4.11	73 µM (≈ 32.5 µg/mL)	
Cc1nc(N2CCN(C(=O)c3cc(Cl)cc(Cl)c3)CC2)c2nc[nH]c2n1			< 4.00	92 µM (≈ 36 µg/mL)	
Cc1nc(N2CCN(C(=O)c3ccc(Cl)cc3)CC2)c2nc[nH]c2n1			4.01	84 µM (≈ 30 µg/mL)	
CCNc1nc(C)cc(N2CCC3(CCN(C(=O)c4ccc(Cl)cc4)C3)C2)n1 (stereo not given)	45 µM	2.5	4.74		
CCNc1nc(C)cc(N2CC3CCC(C2)N3C(=O)c2ccc(Cl)cc2)n1	84 µM	5	4.77		
